Like-named read-outs stand apart in the source and are kept apart here.
Tests used:
[1] = target: T1, M. tuberculosis isocitrate lyase (MtICL) (Mycobacterium tuberculosis, UniProt P9WKK7); assay: biochemical
T1 construct: gene icl
T1 sequence (P9WKK7 1-428): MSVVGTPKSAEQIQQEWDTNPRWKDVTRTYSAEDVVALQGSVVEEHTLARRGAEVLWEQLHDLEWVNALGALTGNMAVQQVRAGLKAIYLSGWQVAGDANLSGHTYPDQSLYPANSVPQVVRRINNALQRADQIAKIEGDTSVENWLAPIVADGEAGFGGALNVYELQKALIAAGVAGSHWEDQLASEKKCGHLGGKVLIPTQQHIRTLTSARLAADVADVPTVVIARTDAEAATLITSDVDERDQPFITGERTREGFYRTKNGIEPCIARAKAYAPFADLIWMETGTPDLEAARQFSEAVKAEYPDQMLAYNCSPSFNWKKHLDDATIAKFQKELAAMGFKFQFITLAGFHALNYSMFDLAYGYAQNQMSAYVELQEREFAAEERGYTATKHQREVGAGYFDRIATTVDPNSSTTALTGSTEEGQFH

[2] = target: T1, M. tuberculosis isocitrate lyase (MtICL); assay: biochemical; remark: listed apart in the source

Compound: C=C(CC(=O)O)C(=O)O [IA, itaconic acid]
- IC50 [1]: 38.6 ± 0.8 µM

Compound: O=c1ccc2ccc(O)c(O)c2o1 [MOL005118, Daphnetin]
- IC50 [2]: 24.4 µM

Compound: O=C(O)C(=O)CBr [3-BP, 3-bromopyruvic acid]
- IC50 [1]: 63.6 ± 2.8 µM

— publication PMC9026967, “Discovery of a Novel Inhibitor Structure of Mycobacterium tuberculosis Isocitrate Lyase” (Molecules, 2022)
